Experimental data taken from the supplement of paper PMC10307832.

Columns and labels:
Experiment in all cases: relative viability (nuclei count vs DMSO), 5 days (fraction); higher = more cells survive
PC-14 = test system: PC-14
Procedure, shortened: (§1)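 Lung cancer cell lines were seeded in 1536-well plates and dosed by pin tool the next day, with either a single drug or a fixed anchor-drug dose combined with five library-drug doses (not always all listed) spaced in √10 steps. Five days later, one step fixed the cells and stained their nuclei (final 0.05% Triton X-100, 1% formaldehyde, 1 ug/ml Hoechst), and nuclei were counted on 4× images. Relative viability is the nuclei count in treated wells divided by the count in vehicle wells, and each value is the median of duplicate plates.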

HCC-366 = test system: HCC-366
Procedure, shortened: as §1

NCI-H23 = test system: NCI-H23
Procedure, shortened: as §1

NCI-H661 = test system: NCI-H661
Procedure, shortened: as §1

NCI-H2009 = test system: NCI-H2009
Procedure, shortened: as §1

LC-2-ad = test system: LC-2-ad
Procedure, shortened: as §1

NCI-H2342 = test system: NCI-H2342
Procedure, shortened: as §1

NCI-H1975 = test system: NCI-H1975
Procedure, shortened: as §1

HCC-827 = test system: HCC-827
Procedure, shortened: as §1

NCI-H2085 = test system: NCI-H2085
Procedure, shortened: as §1

H3255 = test system: H3255
Procedure, shortened: as §1

NCI-H2228 = test system: NCI-H2228
Procedure, shortened: as §1

COR-L23 = test system: COR-L23
Procedure, shortened: as §1

NCI-H1437 = test system: NCI-H1437
Procedure, shortened: as §1

UMC-11 = test system: UMC-11
Procedure, shortened: as §1

ABC-1 = test system: ABC-1
Procedure, shortened: as §1

NCI-H1666 = test system: NCI-H1666
Procedure, shortened: as §1

PC-3 [JPC-3] = test system: PC-3 [JPC-3]
Procedure, shortened: as §1

NCI-H2087 = test system: NCI-H2087
Procedure, shortened: as §1

SK-MES-1 = test system: SK-MES-1
Procedure, shortened: as §1

LXF-289 = test system: LXF-289
Procedure, shortened: as §1

HCC-15 = test system: HCC-15
Procedure, shortened: as §1

LCLC-103H = test system: LCLC-103H
Procedure, shortened: as §1

**Q.** Which results are given for Cc1cn(-c2cc(NC(=O)c3ccc(C)c(Nc4nccc(-c5cccnc5)n4)c3)cc(C(F)(F)F)c2)cn1 [Nilotinib] + COc1cccc2cc(-c3nc([C@H]4CC[C@H](C(=O)O)CC4)n4ncnc(N)c34)[nH]c12 [OSI-027] (partner 0.5 µM)?
**A.** relative viability (PC-14; first compound 0.001 µM): 0.611; relative viability (PC-14; first compound 0.003162 µM): 1.03; relative viability (PC-14; first compound 0.01 µM): 0.846; relative viability (PC-14; first compound 0.03162 µM): 0.312; relative viability (PC-14; first compound 0.1 µM): 0.254; relative viability (HCC-366; first compound 0.001 µM): 0.644; relative viability (HCC-366; first compound 0.003162 µM): 0.93; relative viability (HCC-366; first compound 0.01 µM): 0.663; relative viability (HCC-366; first compound 0.03162 µM): 0.203; relative viability (HCC-366; first compound 0.1 µM): 0.147; relative viability (NCI-H23; first compound 0.001 µM): 0.58; relative viability (NCI-H23; first compound 0.003162 µM): 0.418; relative viability (NCI-H23; first compound 0.01 µM): 0.418; relative viability (NCI-H23; first compound 0.03162 µM): 0.361; relative viability (NCI-H23; first compound 0.1 µM): 0.412; relative viability (NCI-H661; first compound 0.001 µM): 0.672; relative viability (NCI-H661; first compound 0.003162 µM): 0.69; relative viability (NCI-H661; first compound 0.03162 µM): 0.538; relative viability (NCI-H661; first compound 0.1 µM): 0.634; relative viability (NCI-H2009; first compound 0.001 µM): 0.486; relative viability (NCI-H2009; first compound 0.003162 µM): 0.624; relative viability (NCI-H2009; first compound 0.01 µM): 0.765; relative viability (NCI-H2009; first compound 0.03162 µM): 0.556; relative viability (NCI-H2009; first compound 0.1 µM): 0.357; relative viability (LC-2-ad; first compound 0.001 µM): 0.739; relative viability (LC-2-ad; first compound 0.003162 µM): 0.909; relative viability (LC-2-ad; first compound 0.01 µM): 0.795; relative viability (LC-2-ad; first compound 0.03162 µM): 0.728; relative viability (LC-2-ad; first compound 0.1 µM): 0.472; relative viability (NCI-H2342; first compound 0.001 µM): 0.605; relative viability (NCI-H2342; first compound 0.003162 µM): 0.618; relative viability (NCI-H2342; first compound 0.01 µM): 0.558; relative viability (NCI-H2342; first compound 0.03162 µM): 0.536; relative viability (NCI-H2342; first compound 0.1 µM): 0.518; relative viability (NCI-H1975; first compound 0.001 µM): 0.598; relative viability (NCI-H1975; first compound 0.003162 µM): 0.53; relative viability (NCI-H1975; first compound 0.01 µM): 0.149; relative viability (NCI-H1975; first compound 0.03162 µM): 0.409; relative viability (NCI-H1975; first compound 0.1 µM): 0.32; relative viability (HCC-827; first compound 0.003162 µM): 0.822; relative viability (HCC-827; first compound 0.01 µM): 0.85; relative viability (HCC-827; first compound 0.03162 µM): 0.603; relative viability (NCI-H2085; first compound 0.001 µM): 0.695; relative viability (NCI-H2085; first compound 0.003162 µM): 0.549; relative viability (NCI-H2085; first compound 0.01 µM): 0.699; relative viability (NCI-H2085; first compound 0.03162 µM): 0.428; relative viability (NCI-H2085; first compound 0.1 µM): 0.467; relative viability (H3255; first compound 0.001 µM): 0.547; relative viability (H3255; first compound 0.003162 µM): 0.566; relative viability (H3255; first compound 0.03162 µM): 0.501; relative viability (H3255; first compound 0.1 µM): 0.621; relative viability (NCI-H2228; first compound 0.003162 µM): 0.631; relative viability (NCI-H2228; first compound 0.01 µM): 0.588; relative viability (NCI-H2228; first compound 0.03162 µM): 0.449; relative viability (NCI-H2228; first compound 0.1 µM): 0.217; relative viability (COR-L23; first compound 0.001 µM): 0.622; relative viability (COR-L23; first compound 0.003162 µM): 0.957; relative viability (COR-L23; first compound 0.01 µM): 0.92; relative viability (COR-L23; first compound 0.03162 µM): 0.462; relative viability (COR-L23; first compound 0.1 µM): 0.596; relative viability (NCI-H1437; first compound 0.001 µM): 0.826; relative viability (NCI-H1437; first compound 0.003162 µM): 0.815; relative viability (NCI-H1437; first compound 0.01 µM): 0.876; relative viability (NCI-H1437; first compound 0.03162 µM): 0.619; relative viability (NCI-H1437; first compound 0.1 µM): 0.902; relative viability (UMC-11; first compound 0.001 µM): 0.482; relative viability (UMC-11; first compound 0.003162 µM): 0.527; relative viability (UMC-11; first compound 0.01 µM): 0.432; relative viability (UMC-11; first compound 0.1 µM): 0.246; relative viability (ABC-1; first compound 0.001 µM): 0.447; relative viability (ABC-1; first compound 0.003162 µM): 0.479; relative viability (ABC-1; first compound 0.01 µM): 0.45; relative viability (ABC-1; first compound 0.03162 µM): 0.376; relative viability (ABC-1; first compound 0.1 µM): 0.237; relative viability (NCI-H1666; first compound 0.001 µM): 0.823; relative viability (NCI-H1666; first compound 0.003162 µM): 0.846; relative viability (NCI-H1666; first compound 0.01 µM): 0.879; relative viability (NCI-H1666; first compound 0.03162 µM): 0.753; relative viability (NCI-H1666; first compound 0.1 µM): 0.899; relative viability (PC-3 [JPC-3]; first compound 0.001 µM): 0.702; relative viability (PC-3 [JPC-3]; first compound 0.003162 µM): 0.838; relative viability (PC-3 [JPC-3]; first compound 0.01 µM): 0.785; relative viability (PC-3 [JPC-3]; first compound 0.03162 µM): 0.703; relative viability (PC-3 [JPC-3]; first compound 0.1 µM): 0.475; relative viability (NCI-H2087; first compound 0.001 µM): 0.477; relative viability (NCI-H2087; first compound 0.003162 µM): 0.557; relative viability (NCI-H2087; first compound 0.01 µM): 0.499; relative viability (NCI-H2087; first compound 0.03162 µM): 0.221; relative viability (NCI-H2087; first compound 0.1 µM): 0.239; relative viability (SK-MES-1; first compound 0.001 µM): 0.474; relative viability (SK-MES-1; first compound 0.003162 µM): 0.544; relative viability (SK-MES-1; first compound 0.01 µM): 0.662; relative viability (SK-MES-1; first compound 0.03162 µM): 0.342; relative viability (SK-MES-1; first compound 0.1 µM): 0.327; relative viability (LXF-289; first compound 0.001 µM): 0.807; relative viability (LXF-289; first compound 0.003162 µM): 0.965; relative viability (LXF-289; first compound 0.01 µM): 0.94; relative viability (LXF-289; first compound 0.03162 µM): 0.826; relative viability (LXF-289; first compound 0.1 µM): 0.532; relative viability (HCC-15; first compound 0.001 µM): 0.562; relative viability (HCC-15; first compound 0.003162 µM): 0.778; relative viability (HCC-15; first compound 0.01 µM): 0.775; relative viability (HCC-15; first compound 0.03162 µM): 0.435; relative viability (HCC-15; first compound 0.1 µM): 0.306; relative viability (LCLC-103H; first compound 0.001 µM): 0.406; relative viability (LCLC-103H; first compound 0.003162 µM): 0.58; relative viability (LCLC-103H; first compound 0.01 µM): 0.508; relative viability (LCLC-103H; first compound 0.03162 µM): 0.432; relative viability (LCLC-103H; first compound 0.1 µM): 0.407
